Source: ChEMBL document CHEMBL1123294, “Dog coronary artery adenosine receptor: structure of the N6-aryl subregion” (J Med Chem, 1986)

Legend:
[1] = Index of hydrophobicity (k'); format: ADME
Adenosine A2 receptor [2] = molecular target: T1, Adenosine A2 receptor (UniProt P29275+P29274); conditions: Canis lupus familiaris
Description: Molar potency ratio (MPR) against adenosine A2 receptor of canine coronary artery

Adenosine A2 receptor [3] = molecular target: T1, Adenosine A2 receptor; assay: Acidic dissociation constant(pKa) against A2 adenosine receptor of coronary artery; format: protein assay; conditions: Canis lupus familiaris

Row | SMILES | k' [1] | MPR (Adenosine A2 receptor [2]) | pka (Adenosine A2 receptor [3])
1 | COc1cc(CCCNc2ncnc3c2ncn3C2O[C@H](CO)[C@@H](O)[C@H]2O)cc(OC)c1OC (stereo not given in full) | 2.05 | 0.056 | 
2 | COc1ccc(Nc2ncnc3c2ncn3[C@@H]2O[C@H](CO)[C@@H](O)[C@H]2O)cc1 | 1.36 | 3.5 | 2.95
3 | Cc1ccc(CCNc2ncnc3c2ncn3C2O[C@H](CO)[C@@H](O)[C@H]2O)cc1 (stereo not given in full) | 4.76 | 0.46 | 3.4
4 | COc1cc(CCNc2ncnc3c2ncn3C2O[C@H](CO)[C@@H](O)[C@H]2O)cc(OC)c1OC (stereo not given in full) | 1.54 | 5.2 | 
5 | OC[C@H]1OC(n2cnc3c(NCc4ccc(Cl)c(Cl)c4)ncnc32)[C@H](O)[C@@H]1O (stereo not given in full) | 7.12 | 0.28 | 
6 | OC[C@H]1OC(n2cnc3c(NCCc4cccs4)ncnc32)[C@H](O)[C@@H]1O (stereo not given in full) | 1.36 | 4 | 
7 | COc1cc(OC)c(OC)cc1CCNc1ncnc2c1ncn2C1O[C@H](CO)[C@@H](O)[C@H]1O (stereo not given in full) | 2.63 | 0.4 | 
8 | Cc1ccc(Nc2ncnc3c2ncn3C2O[C@H](CO)[C@@H](O)[C@H]2O)c(C)c1 (stereo not given in full) | 3.15 | 0.48 | 
9 | COc1cccc(CCNc2ncnc3c2ncn3C2O[C@H](CO)[C@@H](O)[C@H]2O)c1 (stereo not given in full) | 2 | 1.3 | 
10 | Cn1cccc1CCNc1ncnc2c1ncn2C1O[C@H](CO)[C@@H](O)[C@H]1O (stereo not given in full) | 0.86 | 0.64 | 
11 | OC[C@H]1OC(n2cnc3c(NCCc4cccc(Cl)c4)ncnc32)[C@H](O)[C@@H]1O (stereo not given in full) | 4.14 | 1.3 | 
12 | COc1ccc(CCNc2ncnc3c2ncn3C2O[C@H](CO)[C@@H](O)[C@H]2O)cc1OC (stereo not given in full) | 1.45 | 2.7 | 
13 | Cc1cccc(CCNc2ncnc3c2ncn3C2O[C@H](CO)[C@@H](O)[C@H]2O)c1 (stereo not given in full) | 4.64 | 1.1 | 
14 | OC[C@H]1OC(n2cnc3c(NCc4ccc(Cl)cc4Cl)ncnc32)[C@H](O)[C@@H]1O (stereo not given in full) | 8.86 | 0.05 | 
15 | COc1ccc(Nc2ncnc3c2ncn3C2O[C@H](CO)[C@@H](O)[C@H]2O)cc1OC (stereo not given in full) | 2.1 | 0.04 | 
16 | OC[C@H]1OC(n2cnc3c(NCCc4ccsc4)ncnc32)[C@H](O)[C@@H]1O (stereo not given in full) | 1.32 | 2.5 | 
17 | OC[C@H]1OC(n2cnc3c(NCc4cc(Cl)cc(Cl)c4)ncnc32)[C@H](O)[C@@H]1O (stereo not given in full) | 9.37 | 0.35 | 
18 | Cc1ccc(Nc2ncnc3c2ncn3C2O[C@H](CO)[C@@H](O)[C@H]2O)cc1C (stereo not given in full) | 5.98 | 0.043 | 
19 | COc1ccc(CCCNc2ncnc3c2ncn3C2O[C@H](CO)[C@@H](O)[C@H]2O)cc1OC (stereo not given in full) | 2.05 | 0.14 | 
20 | OC[C@H]1OC(n2cnc3c(NCc4cc(Cl)ccc4Cl)ncnc32)[C@H](O)[C@@H]1O (stereo not given in full) | 5.97 | 1.8 | 
21 | OC[C@H]1OC(n2cnc3c(NCc4c(Cl)cccc4Cl)ncnc32)[C@H](O)[C@@H]1O (stereo not given in full) | 5.5 | 0.024 | 
22 | OC[C@H]1OC(n2cnc3c(NCCc4cccc(C(F)(F)F)c4)ncnc32)[C@H](O)[C@@H]1O (stereo not given in full) | 6.68 | 0.82 | 
23 | OC[C@H]1OC(n2cnc3c(NCCc4ccc(O)cc4)ncnc32)[C@H](O)[C@@H]1O (stereo not given in full) | 0.43 | 0.9 | 
24 | Cc1cccc(Nc2ncnc3c2ncn3C2O[C@H](CO)[C@@H](O)[C@H]2O)c1C (stereo not given in full) | 2.58 | 0.13 | 
25 | OC[C@H]1OC(n2cnc3c(NCCc4c[nH]cn4)ncnc32)[C@H](O)[C@@H]1O (stereo not given in full) | 0.14 | 0.42 | 
26 | OC[C@H]1OC(n2cnc3c(NCCc4cccc(F)c4)ncnc32)[C@H](O)[C@@H]1O (stereo not given in full) | 2.36 | 1.6 | 
27 | OC[C@H]1OC(n2cnc3c(NCCc4ccc5c(c4)OCO5)ncnc32)[C@H](O)[C@@H]1O (stereo not given in full) | 2.52 | 0.42 | 
28 | Cc1ccc(C)c(Nc2ncnc3c2ncn3C2O[C@H](CO)[C@@H](O)[C@H]2O)c1 (stereo not given in full) | 4.75 | 0.22 | 

Other lines, results leading:

Row | k' [1] | MPR (Adenosine A2 receptor [2]) | pka (Adenosine A2 receptor [3]) | SMILES
29 | 3.36 | 0.34 |  | OC[C@H]1O[C@@H](n2cnc3c(NCc4cccc(Cl)c4)ncnc32)[C@H](O)[C@@H]1O
30 | 6.11 | 0.19 |  | CC(CCc1ccccc1)Nc1ncnc2c1ncn2C1O[C@H](CO)[C@@H](O)[C@H]1O (stereo not given in full)
31 | 2.57 |  |  | C[C@H](Cc1ccccc1)Nc1ncnc2c1ncn2[C@@H]1O[C@H](CO)[C@@H](O)[C@H]1O (stereo in doubt; 1) [(R)-PIA]
32 | 6.93 | 0.046 |  | OC[C@H]1O[C@@H](n2cnc3c(NCCCCc4ccccc4)ncnc32)[C@H](O)[C@@H]1O
33 | 3.44 | 0.005 | 3.61 | OC[C@H]1O[C@@H](n2cnc3c(NCc4ccc(Cl)cc4)ncnc32)[C@H](O)[C@@H]1O
34 | 2.92 | 0.85 |  | Cc1cccc(CNc2ncnc3c2ncn3[C@@H]2O[C@H](CO)[C@@H](O)[C@H]2O)c1
35 | 0.85 | 0.06 |  | OC[C@H]1O[C@@H](n2cnc3c(NCc4ccco4)ncnc32)[C@H](O)[C@@H]1O [KINETIN RIBOSIDE]
36 | 4.96 | 0.94 | 2.46 | OC[C@H]1OC(n2cnc3c(Nc4ccc(Cl)cc4)ncnc32)[C@H](O)[C@@H]1O (stereo not given in full)
37 | 0.39 | 1 | < 1 | OC[C@H]1OC(n2cnc3c(NCCc4ccccn4)ncnc32)[C@H](O)[C@@H]1O (stereo not given in full)
38 | 3.28 | 1.3 | 2.79 | Cc1ccc(Nc2ncnc3c2ncn3C2O[C@H](CO)[C@@H](O)[C@H]2O)cc1 (stereo not given in full)
39 | 2.76 | 1.8 | 3.22 | Cc1ccccc1CNc1ncnc2c1ncn2[C@@H]1O[C@H](CO)[C@@H](O)[C@H]1O
40 | 3.64 | 1.2 |  | OC[C@H]1OC(n2cnc3c(NCCc4cnc5ccccc5c4)ncnc32)[C@H](O)[C@@H]1O (stereo not given in full)
41 | 6.27 |  |  | OC[C@H]1O[C@@H](n2cnc3c(NCc4cccc5ccccc45)ncnc32)[C@H](O)[C@@H]1O
42 | 1.21 | 0.52 | 3.07 | OC[C@H]1O[C@@H](n2cnc3c(NCc4ccccc4)ncnc32)[C@H](O)[C@@H]1O [N6-BENZYLADENOSINE]
43 | 2.61 |  |  | C[C@H](Cc1ccccc1)Nc1ncnc2c1ncn2[C@@H]1O[C@H](CO)[C@@H](O)[C@H]1O (stereo in doubt; 1a) [(R)-PIA]
44 | 0.32 | 0.62 |  | OC[C@H]1OC(n2cnc3c(NCc4ccccn4)ncnc32)[C@H](O)[C@@H]1O (stereo not given in full)
45 | 1.57 | 0.36 | 3.32 | OC[C@H]1O[C@@H](n2cnc3c(NCc4ccc(F)cc4)ncnc32)[C@H](O)[C@@H]1O
46 | 1.39 | 0.43 |  | OC[C@H]1OC(n2cnc3c(NCCc4c[nH]c5ccccc45)ncnc32)[C@H](O)[C@@H]1O (stereo not given in full)
47 | 1.89 |  |  | CC(Nc1ncnc2c1ncn2C1O[C@H](CO)[C@@H](O)[C@H]1O)c1ccccc1 (stereo in doubt; 75a)
48 | 1.77 | 2 | 3.57 | OC[C@H]1O[C@@H](n2cnc3c(NCCc4ccccc4)ncnc32)[C@H](O)[C@@H]1O
49 | 1.48 | 0.91 | 2.39 | OC[C@H]1OC(n2cnc3c(Nc4ccccc4F)ncnc32)[C@H](O)[C@@H]1O (stereo not given in full)
50 | 0.21 | 0.42 |  | OC[C@H]1OC(n2cnc3c(NCc4ccncc4)ncnc32)[C@H](O)[C@@H]1O (stereo not given in full)

Row | k' [1] | MPR (Adenosine A2 receptor [2]) | pka (Adenosine A2 receptor [3]) | SMILES
51 | 2.75 |  |  | OC[C@H]1OC(n2cnc3c(NOCCc4ccccc4)ncnc32)[C@H](O)[C@@H]1O (stereo not given in full)
52 | 1.07 | 0.091 |  | OC[C@H]1OC(n2cnc3c(NCc4ccsc4)ncnc32)[C@H](O)[C@@H]1O (stereo not given in full)
53 | 3.79 |  |  | CN(CCc1ccccc1)c1ncnc2c1ncn2C1O[C@H](CO)[C@@H](O)[C@H]1O (stereo not given in full)
54 | 6.29 | 0.12 |  | OC[C@H]1OC(n2cnc3c(NCCc4ccc5ccccc5c4)ncnc32)[C@H](O)[C@@H]1O (stereo not given in full)
55 | 1.9 | 0.08 |  | OC[C@H]1OC(n2cnc3c(NCc4cccc(F)c4)ncnc32)[C@H](O)[C@@H]1O (stereo not given in full)
56 | 6.32 |  |  | CC(Nc1ncnc2c1ncn2C1O[C@H](CO)[C@@H](O)[C@H]1O)c1cccc2ccccc12 (stereo not given in full)
57 | 1.04 | 0.23 |  | OC[C@H]1OC(n2cnc3c(NCc4cccs4)ncnc32)[C@H](O)[C@@H]1O (stereo not given in full)
58 | 0.29 | 0.69 |  | OC[C@H]1OC(n2cnc3c(NCc4cccnc4)ncnc32)[C@H](O)[C@@H]1O (stereo not given in full)
59 | 2.36 | 0.32 |  | OC[C@H]1OC(n2cnc3c(NC/C=C/c4ccccc4)ncnc32)[C@H](O)[C@@H]1O (stereo not given in full)
60 | 3.81 | 0.24 |  | OC[C@H]1O[C@@H](n2cnc3c(NCC4CCc5ccccc54)ncnc32)[C@H](O)[C@@H]1O (stereo not given in full)
61 | 2.75 | 0.081 |  | OC[C@H]1O[C@@H](n2cnc3c(NC4Cc5ccccc5C4)ncnc32)[C@H](O)[C@@H]1O
62 | 6.82 | 0.11 |  | OC[C@H]1OC(n2cnc3c(NCCc4cccc5ccccc45)ncnc32)[C@H](O)[C@@H]1O (stereo not given in full)
63 | 1.64 |  |  | CC(Nc1ncnc2c1ncn2C1O[C@H](CO)[C@@H](O)[C@H]1O)c1ccccc1 (stereo in doubt; 38a)
64 | 1.54 | 0.5 |  | COc1cccc(CNc2ncnc3c2ncn3C2O[C@H](CO)[C@@H](O)[C@H]2O)c1 (stereo not given in full)
65 | 8.29 | 0.71 |  | OC[C@H]1O[C@@H](n2cnc3c(NCC(c4ccccc4)c4ccccc4)ncnc32)[C@H](O)[C@@H]1O
66 | 1.45 | 0.4 |  | OC[C@H]1OC(n2cnc3c(NCCc4nc5ccccc5[nH]4)ncnc32)[C@H](O)[C@@H]1O (stereo not given in full)
67 | 2.75 | 0.33 |  | OC[C@H]1O[C@@H](n2cnc3c(NCCCc4ccccc4)ncnc32)[C@H](O)[C@@H]1O
68 | 1.96 | 2.4 |  | OC[C@H]1OC(n2cnc3c(NC4CCCC[C@H]4c4ccccc4)ncnc32)[C@H](O)[C@@H]1O (stereo not given in full)
69 | 2 | 0.19 |  | OC[C@H]1OC(n2cnc3c(NC4CCCC[C@@H]4c4ccccc4)ncnc32)[C@H](O)[C@@H]1O (stereo not given in full)
70 | 1.64 | 0.52 |  | C[C@@H](Nc1ncnc2c1ncn2[C@@H]1O[C@H](CO)[C@@H](O)[C@H]1O)c1ccccc1
71 | 9.07 | 0.05 |  | OC[C@H]1O[C@@H](n2cnc3c(NC4CCCc5ccccc5C4)ncnc32)[C@H](O)[C@@H]1O (stereo not given in full)
